In PubChem BioAssay AID248 (DTP/NCI, 2004):
Values joined by “and” are separate entries in the source; they are usually repeats but may differ in a detail not shown here. Equal values may be shown once. Toxic doses and inconclusive results are not listed. No stated cut-off is given here; in the data, active means T/C of 150% or more; inactive means T/C below 125%.

Tested on: L1210 leukemia ip in BDF1 mice, survival T/C
Test: NCI In Vivo Anticancer Drug Screen. Data for tumor model L1210 Leukemia (intraperitoneal) in B6D2F1 (BDF1) mice
Conditions: endpoint: mean survival time, higher = longer survival
How it was run: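 Ratio derived from survival: compound-dosed mice over vehicle-dosed mice, all bearing a transplantable tumor.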

[1] = dose: 100.0 mg/kg/injection, schedule: Q04DX003 (ip), vehicle: saline with Tween-80
[2] = dose: 200.0 mg/kg/injection, schedule: Q04DX003 (ip), vehicle: saline with Tween-80
[3] = dose: 400.0 mg/kg/injection, schedule: Q04DX003 (ip), vehicle: saline with Tween-80
[4] = dose: 100.0 mg/kg/injection, schedule: Q04DX003 (ip), vehicle: Klucel (hydroxypropylcellulose) (HPC)
[5] = dose: 200.0 mg/kg/injection, schedule: Q04DX003 (ip), vehicle: Klucel (hydroxypropylcellulose) (HPC)
[6] = dose: 400.0 mg/kg/injection, schedule: Q04DX003 (ip), vehicle: Klucel (hydroxypropylcellulose) (HPC)
[7] = dose: 25.0 mg/kg/injection, schedule: Q01DX009 (ip), vehicle: Klucel (hydroxypropylcellulose) (HPC)
[8] = dose: 25.0 mg/kg/injection, schedule: Q04DX003 (ip), vehicle: Klucel (hydroxypropylcellulose) (HPC)
[9] = dose: 50.0 mg/kg/injection, schedule: Q01DX009 (ip), vehicle: Klucel (hydroxypropylcellulose) (HPC)
[10] = dose: 75.0 mg/kg/injection, schedule: Q01DX001 (ip), vehicle: saline
[11] = dose: 150.0 mg/kg/injection, schedule: Q01DX001 (ip), vehicle: saline
[12] = dose: 300.0 mg/kg/injection, schedule: Q01DX001 (ip), vehicle: saline
[13] = dose: 100.0 mg/kg/injection, schedule: Q01DX009 (ip), vehicle: saline
[14] = dose: 12.5 mg/kg/injection, schedule: Q01DX001 (ip), vehicle: carboxymethylcellulose (CMC)
[15] = dose: 25.0 mg/kg/injection, schedule: Q01DX001 (ip), vehicle: carboxymethylcellulose (CMC)
[16] = dose: 50.0 mg/kg/injection, schedule: Q01DX001 (ip), vehicle: carboxymethylcellulose (CMC)

Measured: T/C

O=C(Nc1cccc(Cl)c1)OCC#CCN1CCCC1
inactive: dose: 5.0 mg/kg/injection, schedule: Q01DX001 (ip), vehicle: saline 105 % of control | dose: 9.0 mg/kg/injection, schedule: Q01DX001 (ip), vehicle: saline 95 % of control and 101 % of control | dose: 10.0 mg/kg/injection, schedule: Q01DX001 (ip), vehicle: saline 105 % of control | dose: 13.0 mg/kg/injection, schedule: Q01DX001 (ip), vehicle: saline 97 % of control and 104 % of control | dose: 20.0 mg/kg/injection, schedule: Q01DX001 (ip), vehicle: saline 98 % of control and 101 % of control | dose: 30.0 mg/kg/injection, schedule: Q01DX001 (ip), vehicle: saline 98 % of control and 101 % of control | dose: 40.0 mg/kg/injection, schedule: Q01DX001 (ip), vehicle: saline 101 % of control | dose: 80.0 mg/kg/injection, schedule: Q01DX001 (ip), vehicle: saline 111 % of control

CCOC(=O)N1CCC2(CC1)CC(=O)N(N1CCCCCC1)C2=O
inactive: dose: 100.0 mg/kg/injection, schedule: Q04DX002 (ip), vehicle: Klucel (hydroxypropylcellulose) (HPC) 93 % of control | dose: 200.0 mg/kg/injection, schedule: Q04DX002 (ip), vehicle: Klucel (hydroxypropylcellulose) (HPC) 93 % of control

CC(C)(C)c1ccc(OC(=S)N2CCOCC2)cc1
inactive: dose: 100.0 mg/kg/injection, schedule: Q01DX009 (ip), vehicle: saline with Tween-80 98 % of control | [1] 96 % of control | dose: 200.0 mg/kg/injection, schedule: Q01DX009 (ip), vehicle: saline with Tween-80 107 % of control | [2] 96 % of control | dose: 400.0 mg/kg/injection, schedule: Q01DX009 (ip), vehicle: saline with Tween-80 102 % of control | [3] 93 % of control

CC(C)(C)S(=O)(=O)c1nc2ccccc2s1
inactive: [4] 93 % of control | [5] 107 % of control | [6] 90 % of control

CNC(Cc1ccccc1)C1CCCCC1 (configuration not stated)
inactive: dose: 6.0 mg/kg/injection, schedule: Q04DX003 (ip), vehicle: Klucel (hydroxypropylcellulose) (HPC) 93 % of control | dose: 12.0 mg/kg/injection, schedule: Q01DX009 (ip), vehicle: Klucel (hydroxypropylcellulose) (HPC) 98 % of control | dose: 12.0 mg/kg/injection, schedule: Q04DX003 (ip), vehicle: Klucel (hydroxypropylcellulose) (HPC) 98 % of control | [7] 98 % of control | [8] 95 % of control and 109 % of control | [9] 95 % of control

CNCc1ccccc1Cc1ccccc1
inactive: [10] 100 % of control | [11] 97 % of control | [12] 95 % of control

O=C(C(F)(F)F)C(F)(F)F
inactive: dose: 6.25 mg/kg/injection, schedule: Q01DX009 (ip), vehicle: saline 95 % of control | dose: 12.5 mg/kg/injection, schedule: Q01DX009 (ip), vehicle: saline 98 % of control | dose: 25.0 mg/kg/injection, schedule: Q01DX009 (ip), vehicle: saline 114 % of control | [13] 88 % of control

O=NN(C(=O)Nc1ccccc1)c1ccccc1
inactive: dose: 2.0 mg/kg/injection, schedule: Q01DX001 (ip), vehicle: carboxymethylcellulose (CMC) 106 % of control | dose: 4.0 mg/kg/injection, schedule: Q01DX001 (ip), vehicle: carboxymethylcellulose (CMC) 112 % of control | dose: 6.0 mg/kg/injection, schedule: Q01DX001 (ip), vehicle: carboxymethylcellulose (CMC) 112 % of control | dose: 8.0 mg/kg/injection, schedule: Q01DX001 (ip), vehicle: carboxymethylcellulose (CMC) 110 % of control | dose: 10.0 mg/kg/injection, schedule: Q01DX001 (ip), vehicle: carboxymethylcellulose (CMC) 104 % of control | [14] 108 % of control | [15] 100 % of control | [16] 102 % of control | dose: 100.0 mg/kg/injection, schedule: Q01DX001 (ip), vehicle: carboxymethylcellulose (CMC) 108 % of control

CN(C)c1ccc(C(C#N)=C(C#N)C#N)cc1
inactive: dose: 100.0 mg/kg/injection, schedule: Q01DX001 (ip), vehicle: acetone 96 % of control | dose: 100.0 mg/kg/injection, schedule: Q01DX009 (ip), vehicle: acetone 97 % of control | dose: 200.0 mg/kg/injection, schedule: Q01DX001 (ip), vehicle: acetone 99 % of control | dose: 200.0 mg/kg/injection, schedule: Q01DX009 (ip), vehicle: acetone 97 % of control | dose: 400.0 mg/kg/injection, schedule: Q01DX001 (ip), vehicle: acetone 94 % of control

C=CCCCCCCCCC
inactive: dose: 100.0 mg/kg/injection, schedule: Q04DX002 (ip), vehicle: saline with Tween-80 93 % of control | dose: 200.0 mg/kg/injection, schedule: Q04DX002 (ip), vehicle: saline with Tween-80 111 % of control | dose: 400.0 mg/kg/injection, schedule: Q04DX002 (ip), vehicle: saline with Tween-80 104 % of control

CCOC(=O)N/N=C/c1cccc([N+](=O)[O-])c1
inactive: [10] 104 % of control | [11] 100 % of control | [12] 101 % of control

C/C(=N/N(C)C)c1ccccc1
inactive: dose: 100.0 mg/kg/injection, schedule: Q04DX002 (ip), vehicle: saline 97 % of control | [4] 112 % of control | dose: 200.0 mg/kg/injection, schedule: Q04DX002 (ip), vehicle: saline 108 % of control | [5] 95 % of control | dose: 400.0 mg/kg/injection, schedule: Q04DX002 (ip), vehicle: saline 108 % of control | [6] 90 % of control

CCCCSSC(Cl)(Cl)Cl
inactive: dose: 6.25 mg/kg/injection, schedule: Q01DX009 (ip), vehicle: carboxymethylcellulose (CMC) 96 % of control and 104 % of control | [14] 98 % of control | dose: 12.5 mg/kg/injection, schedule: Q01DX009 (ip), vehicle: carboxymethylcellulose (CMC) 101 % of control and 89 % of control | dose: 12.5 mg/kg/injection, schedule: Q04DX003 (ip), vehicle: carboxymethylcellulose (CMC) 96 % of control | [15] 95 % of control | dose: 25.0 mg/kg/injection, schedule: Q01DX009 (ip), vehicle: carboxymethylcellulose (CMC) 96 % of control | dose: 25.0 mg/kg/injection, schedule: Q04DX002 (ip), vehicle: carboxymethylcellulose (CMC) 95 % of control and 107 % of control | dose: 25.0 mg/kg/injection, schedule: Q04DX003 (ip), vehicle: carboxymethylcellulose (CMC) 96 % of control | [16] 88 % of control | dose: 50.0 mg/kg/injection, schedule: Q04DX002 (ip), vehicle: carboxymethylcellulose (CMC) 95 % of control and 101 % of control | dose: 50.0 mg/kg/injection, schedule: Q04DX003 (ip), vehicle: carboxymethylcellulose (CMC) 103 % of control and 91 % of control | dose: 200.0 mg/kg/injection, schedule: Q04DX002 (ip), vehicle: carboxymethylcellulose (CMC) 86 % of control

COc1cc(OC)c2c(=O)c3ccccc3[nH]c2c1
inactive: [1] 87 % of control | [3] 88 % of control

CN(Cc1cc(Br)cc(Br)c1O)C1CC2CCC1(C)C2(C)C (configuration not stated)
inactive: [4] 88 % of control | [5] 95 % of control | [6] 88 % of control

COc1cc(Nc2nc(N)ncc2N)cc(OC)c1OC
inactive: [1] 95 % of control | [2] 98 % of control | [3] 92 % of control

[NH-]c1ccccc1C(=O)O.[NH-]c1ccccc1C(=O)O.[Zn+2]
inactive: dose: 12.5 mg/kg/injection, schedule: Q01DX009 (ip), vehicle: Klucel (hydroxypropylcellulose) (HPC) 98 % of control | [7] 97 % of control | [8] 97 % of control | [9] 93 % of control | dose: 50.0 mg/kg/injection, schedule: Q04DX003 (ip), vehicle: Klucel (hydroxypropylcellulose) (HPC) 90 % of control | [4] 94 % of control

O=C(Nc1cccc(Cl)c1Cl)OCCN1CCNC1=S
inactive: [13] 94 % of control | dose: 200.0 mg/kg/injection, schedule: Q01DX009 (ip), vehicle: saline 96 % of control | dose: 400.0 mg/kg/injection, schedule: Q01DX009 (ip), vehicle: saline 102 % of control
